Measurements taken from patent US20080227809A1, “Arylalkylamine Vanadium (V) Salts for the Treatment and/or Prevention of Diabetes Mellitus” (GENMEDICA THERAPEUTICS SL, priority 2004, published 2008).

How the values were obtained:
[1] = system: isolated rat adipocytes; test: glucose transport (2-deoxyglucose uptake) in isolated rat adipocytes; format: cell-based; conditions: for stimulation of glucose transport at low concentration compared with A and B vanadium salts: 10 μM; for stimulation of glucose transport at low concentration compared with A and B vanadium salts / maximal stimulatory effect on glucose transport, compounds compared: vanadium salts; for maximal stimulatory effect on glucose transport, compounds compared: FIG. 6B; for stimulatory effect on glucose transport in the presence of semicarbazide: 1 mM semicarbazide (SSAO inhibitor)
Experimental: In order to determine whether salts formed by vanadate and benzylamine could produce an insulin mimetic effect, the effect of increasing concentrations of hexaquis(benzylammonium) decavanadate on glucose transport activity in isolated rat adipocytes was tested. Hexaquis(benzylammonium) decavanadate induced the stimulation of glucose transport which was perceptible from concentrations of 0.5 μM, with a maximal effect observed 2.5 μM and the semimaximal effect above 1 μM. […] The maximum effect provoked by incubation with hexaquis(benzylammonium) decavanadate was greater than that produced by the presence of benzylamine and vanadate in combination (FIG. 1). […] In similar assays, the activity of hexaquis(benzylammonium) decavanadate, pentaquis(benzylammonium) decavanadate and tetraquis(benzylammonium) decavanadate on glucose transport activity in isolated rat adipocytes were analyzed.
To determine the possible insulin mimetic effect of certain vanadium arylalkylamines, the capacity of these compounds to enhance glucose transport in isolated rat adipocytes was tested. Adipose cells from Wistar rats were incubated for 45 minutes in basal conditions (Basal) or in the presence of 100 nM insulin (Ins), and different concentrations of. hexaquis(benzylammonium) decavanadate (B6V10) in the absence or in the presence of 1 mM semicarbazide (SCZ). Subsequently, 2-DG transport was measured over a 5 min. interval.
The effects of the three tested compounds (B6V10, B5V10 and B4V10) were compared. Adipose cells from Wistar rats were incubated for 45 minutes in basal conditions (Basal) or in the presence of 100 nM insulin (Ins), and different concentrations of. decavanadate (V10), hexaquis(benzylammonium) decavanadate (B6V10), pentaquis(benzylammonium) decavanadate (B5V10) or tetraquis(benzylammonium) decavanadate (B4V10) in the absence or in the presence of 1 mM semicarbazide (SCZ). 2-DG transport was measured over 5 min. intervals. […] The stimulation of all three compounds on glucose transport was blocked in the presence of semicarbazide.
In additional experiments, compounds shown in FIG. 6A (named 2-(4-fluoro-phenyl)-ethylamine (compound A), 3-phenyl-propylamine (compound B), 4-fluoro-benzylamine (compound C) and 4-phenyl-butylamine (compound D)) were assessed using the experimental methods set forth above for the capacity to stimulate 2-DG uptake in isolated rat adipocytes. Adipose cells from Wistar rats were incubated for 45 minutes in basal conditions (Basal) or in the presence of 100 nM insulin (Ins), and different concentrations of vanadium salts of 2-(4-fluoro-phenyl)-ethylamine (compound A), 3-phenyl-propylamine (compound B), 4-fluoro-benzylamine (compound C) and 4-phenyl-butylamine (compound D). 2-DG transport was measured over 5 min.
(§1) The effects of incubation with semicarbazide or phosphatidylinositol 3-kinase inhibitors were also investigated. Adipose cells were incubated with B6V10 (25 μM, 45 min) in the absence or presence of wortmannin (2 μM, 45 min), LY294002 (10 μM, 45 min) or semicarbazide (1 mM, 45 min) and thereafter 2-deoxyglucose uptake was determined during 5 min. Activation of protein kinase B phosphorylation induced by B6V10 was blocked by semicarbazide and it was not observed by decavanadate. In addition, phosphatidylinositol 3-kinase inhibitors wortmannin and LY294002 blocked B6V10-induced glucose transport (FIG. 7E).

[2] = system: streptozotocin-induced diabetic rats; test: chronic subcutaneous (osmotic minipump) treatment, glycemia of streptozotocin (45 mg/kg) diabetic rats; format: in vivo, rat; conditions: 2.5 μmol/kg/day subcutaneous by osmotic minipumps, about two weeks
Experimental: Insulin concentrations were determined before and after treatment.
The effect of chronic administration of hexaquis(benzylammonium) decavanadate on glycemia from diabetic rats was determined. Thus, diabetes was induced in rats by intravenous administration of streptozotocin, which destroys the β-pancreatic cells that produce insulin.
(§2) Chronic in vivo efficacy of B6V10 was evaluated in streptozotocin-induced diabetic rats and in db/db mice. Streptozotocin-induced (45 mg/kg) diabetic rats were subcutaneously treated with hexaquis(benzylammonium) decavanadate (2.5 μmol/kg) (B6V10, solid squares, FIG. 8A) or with decavanadate (2.5 μmol/kg) (V10, open circles, FIG. 8A) delivered subcutaneously by osmotic minipumps implanted in the dorsal region. Diabetic rats were also sham-operated (untreated, solid diamonds, FIG. 8A). […] These experiments were repeated using an oral administration protocol. Streptozotocin-induced (45 mg/kg) diabetic rats were orally treated with hexaquis(benzylammonium) decavanadate (5 μmol/kg from day 0 to day 7 and 10 μmol/kg/day from day 7 to day 17) (B6V10, solid squares, FIG. 8B) or received decavanadate (10 μmol/kg) (V10, open circles, FIG. 8B). Nondiabetic rats were also untreated (solid triangles, FIG. 8B).

[3] = system: streptozotocin-induced diabetic rats with undetectable circulating insulin; conditions: 2.5 μmol/kg subcutaneous by osmotic minipumps, streptozotocin 100 mg/kg
Experimental: Male Wistar rats weighting 180-220 g were purchased from Harlan (Interfauna Ibèrica S.A., Spain). Diabetes was induced by a single intraperitoneal injection of a freshly prepared solution of streptozotocin (in some studies the dose was 45 mg/kg body weight and in some others 100 mg/kg body weight dissolved in 50 mM citrate buffer, pH 4.5). Only diabetic animals with glycemia above 300 mg/dl were used. The animals were housed in animal quarters at 22° C. with a 12 h light/12 h dark cycle and were fed ad libitum. All procedures used were approved by the animal ethical committee of the University of Barcelona, Spain.
Osmotic minipumps delivering B6V10 (2.5 μmol/kg body wt/day) or decavanadate (2.5 μmol/kg body wt/day) were implanted subcutaneously in diabetic rats anaesthetised by ketamine hydrochloride (95 mg/kg) and xylasine (10 mg/kg). […] Glycemia was measured on arterio-venous blood collected from the tail vessels at 09:00 am for two weeks, before the administration of vanadate. Insulin concentrations were determined before and after treatment. In another set of experiments, B6V10 was orally administered at a single dose of 5 μmol/kg/day during the first week and 10 μmol/kg/day during 2 additional weeks by gastric gavage. A control group received the corresponding decavanadate salt in the absence of benzylamine. At the end of the treatment, animals were sacrificed and the liver, fat pad, heart and lung were kept at −80° C. and the plasma at −20° C. until their use for in vitro analysis.
In glucose tolerance tests and in chronic treatments, circulating glucose concentrations were determined by a rapid glucose analyser (Accutrend® Sensor Comfort, Roche, Basel. Switzerland). Plasma insulin (IRI) concentration was determined by ELISA method using a kit obtained from Crystal Chem. Inc. (Downers Grove, Ill.).
To this end, rats were made diabetic by the injection of a large dose of streptozotocin (100 mg/kg) that eliminates β-pancreatic insulin content.

[4] = system: streptozotocin-induced diabetic rats; test: chronic oral treatment, glycemia of streptozotocin (45 mg/kg) diabetic rats; format: in vivo, rat; conditions: for effect on glycemia: daily oral administration, 17 days
Experimental: The effect of the oral administration of hexaquis(benzylammonium) decavanadate on glycemia from diabetic rats was also studied. Diabetes was induced in rats by intravenous administration of streptozotocin, and subsequently, a hexaquis(benzylammonium) decavanadate or sodium decavanadate unique dose was administered to the rats. […] After seven days of treatment, the dose was increased at 10 μmol/kg/day which was maintained for an additional ten days. […] Thus, glycemia in sodium decavanadate treated rats was approximately 450 mg/dl and glycemia of hexaquis(benzylammonium) decavanadate treated rats was approximately 250 mg/dl.
as §2

[5] = system: protein kinase B; test: protein kinase B phosphorylation in isolated rat adipocytes; format: cell-based; conditions: 25 μM
Experimental: Isolated fat cells were disrupted for total membrane preparation by hypo-osmotic lysis in a 20 mM HES buffer and an antiprotease and antiphosphatase cocktail as reported by Abella et al. (2003, Diabetes 52: 1004-1013). Protein concentrations were determined by the Bradford method (Bradford, 1976, Anal. Biochem. 72: 248-254) with gamma-globulin as protein concentration standard. Immunoprecipitation and immunoblot assays were performed as previously described by Abella et al. (2004, Id.) with the use of a monoclonal antiphosphotyrosine antibody for the immunoprecipitation and an anti-insulin receptor antibody for immunobloting, respectively. SDS-polyacrylamide gel electrophoresis was performed on membrane proteins following conventional procedures. Proteins were transferred to Immobilon and immunoblotting was performed as reported by Castello et al. (1994, J. Biol. Chem. 269: 5905-5912).
The mechanism of action of B6V10 was investigated in isolated rat adipocytes. Adipose cells from Wistar rats were incubated for different times in the presence of 25 μM hexaquis(benzylammonium) decavanadate (B6V10). Cells were also incubated in the presence of insulin (100 nM, 45 min), decavanadate (25 μM, 45 min) or semicarbazide (1 mM, 45 min). Subsequently, 2-deoxyglucose uptake (results shown in FIG. 7A), tyrosine phosphorylation of insulin receptor (FIG. 7B), phospho-Thr^308-protein kinase B (FIG. 7C) and phospho-Ser^473-protein kinase B (FIG. 7D) was measured. […] The phosphorylation of protein kinase B induced by B6V10 was parallel to activation of glucose transport (FIGS. 7C and 7D).
as §1

[6] = isolated rat adipocytes, 45 min incubation

NCCCc1ccccc1 [compound B, 3-phenyl-propylamine]
stimulation of glucose transport [1, 6]: markedly stimulated

NCc1ccc(F)cc1 [compound C, 4-fluoro-benzylamine]
stimulation of glucose transport at low concentration compared with A and B vanadium salts [1]: higher | stimulation of glucose transport [1, 6]: markedly stimulated | maximal stimulatory effect on glucose transport, compounds compared [1]: similar

NCCCCc1ccccc1 [compound D, 4-phenyl-butylamine]
stimulation of glucose transport at low concentration compared with A and B vanadium salts [1]: higher | stimulation of glucose transport [1, 6]: markedly stimulated | maximal stimulatory effect on glucose transport, compounds compared [1]: similar

sodium decavanadate [reference compound]
effect on glycemia [2]: did not modify substantially its glycemia | effect on glycemia ([2]; listed as V10): did not alter glycemia | effect on glycemia [3]: did not show any change in circulating glucose | stimulation of glucose transport ([1]; alone at 5 to 50 μM): did not stimulate glucose transport | effect on glycemia [4]: not affected substantially | effect on glycemia ([4]; listed as V10): did not alter glycemia | glycemia ([4]; oral, after dosage increase to 10 μmol/kg/day): approximately 450 mg/dl | protein kinase B phosphorylation [5]: not observed

pentaquis(benzylammonium) decavanadate [Example B5V10]
stimulatory effect on glucose transport in the presence of semicarbazide [1]: blocked | stimulatory effect on glucose transport in the presence of semicarbazide ([1]; listed as pentaquis(benzylammonium) decavanadate): inhibited | stimulation of glucose transport [1, 6]: pronounced stimulation

tetraquis(benzylammonium) decavanadate [Example B4V10]
stimulatory effect on glucose transport in the presence of semicarbazide [1]: blocked | stimulatory effect on glucose transport in the presence of semicarbazide ([1]; listed as tetraquis(benzylammonium) decavanadate): inhibited | stimulation of glucose transport [1, 6]: pronounced stimulation

NCCc1ccc(F)cc1 [compound A, 2-(4-fluoro-phenyl)-ethylamine]
stimulation of glucose transport [1, 6]: markedly stimulated
